# Reference: US6962714B2, “Critical fluid antimicrobial compositions and their use and generation” (priority 2002, dated 2005)
# Experiments:
# Type in all cases: cell-based
# [1] = test system: Escherichia coli ATCC 11229; assay: Hard surface test, stainless steel coupon exposed to vent gas in closed vessel; settings: E. coli ATCC 11229, vent gas five minutes
# Experimental: (§1) The efficacy of peroxyacetic acid antimicrobial delivered via CO2 gas was tested in a hard surface test against Escherichia coli and Staphylococcus aureus.
# (§2) The coupons were exposed to the peroxyacetic acid antimicrobial vent gas for five minutes. Dry and wet methods were used for the testing. In the dry method, a dry film was generated on the coupon by adding a 20 μl suspension onto the coupon surface and drying the solution prior to the experiment. In the wet method, the 20 μl suspension was added to the coupon surface immediately before placing the coupon in the syringe and exposing it to the antimicrobial gas. After exposure to the antimicrobial gas for a set time period, the coupon was removed and placed in an appropriate neutralizer to stop the antimicrobial chemical activity. The bacteria remaining on the coupons were then incubated and the population reduction was determined.
# [2] = test system: Staphylococcus aureus ATCC 6538; assay: as above; settings: S. aureus ATCC 6538, vent gas five minutes
# Experimental: as §1, §2
# [3] = test system: Escherichia coli ATCC 11229; assay: Aqueous suspension (solution) test, antimicrobial vent gas bubbled through broth; settings: E. coli ATCC 11229, POAA in CO2 gas bubbled through 10 ml bacteria solution
# Experimental: (§3) Exposure times of 30 seconds and two minutes were tested.
# [4] = test system: Staphylococcus aureus ATCC 6538; assay: as above; settings: S. aureus ATCC 6538, POAA in CO2 gas bubbled through 10 ml bacteria solution
# Experimental: as §3
# [5] = dry method (dry bacterial film on coupon)
# [6] = wet method (20 μl bacterial suspension on coupon)
# [7] = exposure 2 minutes, listed as peroxyacetic acid
compound,measurement,setting,value
"CC(=O)OO [POAA, peroxyacetic acid]",Log Reduction,[1]; [5],6.5 log
same,Log Reduction,[1]; [6],6.5 log
same,Log Reduction,[2]; [5],5.5 log
same,Log Reduction,[2]; [6],5.5 log
same,Log Reduction,[3]; exposure 30 seconds,1.1 log
same,Log Reduction,[3]; exposure 2 minutes,6.1 log
same,Log Reduction,[3]; [7],greater than 6 log
same,Log Reduction,[4]; exposure 30 seconds,2.5 log
same,Log Reduction,[4]; exposure 2 minutes,6.3 log
same,Log Reduction,[4]; [7],greater than 6 log
